Measured values from patent US20040072725A1, “Remedies/preventives for inflammatory diseases” (AJINOMOTO CO. INC, priority 2001, published 2004).

Tests used:
[1] = system: collagen-induced arthritis (CIA) in DBA-1 mice; assay: Murine collagen-induced arthritis (CIA); format: in vivo
Method: CIA induction in mice was attained by sensitizing mice with type-II collagen to trigger experimental arthritis (see Courtenay et al., Nature, 283, 666-668, 1980).
An emulsion having an antigen amount of 100 μg/0.1 ml/mouse was intracutaneously injected into the tail root of each mouse. Three weeks after the first sensitization, the same emulsion also having an antigen amount of 100 μg/0.1 ml/mouse was again intracutaneously injected into the tail root of each mouse for boosting (additional) immunization, in the same manner as that for the first sensitization. About 4 days after the additional immunization, the mice were diagnosed as being arthritic, in which reddish edema was observed. […] The level of the edema in the mice was grouped into 4 ranks, and every limb (in four limbs) of each mouse was visually checked. […]
Collagen-induced arthritis (CIA) was induced in mice in the same manner as above, and the mice were tested also in the same manner as above. […] The mice were judged on day 14 after the boosting (additional) immunization.
The test condition was the same as above. As a result, in the control group, four of the five mice developed clinical arthritis in 14 days after the second subcutaneous administration; but in the ornithine-administered group, no mice developed it within 14 days after the second subcutaneous administration.
However, it was 0 in the combined administration group.

[2] = system: SKG mice, model mice with spontaneously-developed chronic rheumatism (rheumatoid arthritis); assay: SKG mice with spontaneously-developed chronic rheumatism; format: in vivo
Description: Regarding the score, 0 indicates no change; 0.1 indicates reddish edema seen in the finger joints of the mice; 0.5 indicates edema seen in the joints of the four limbs thereof; and 1.0 indicates serious edema seen in the joints thereof. For these, the mice were visually checked. The total of the scores of all the four limbs of each mouse is plotted in the graph.
An SKG mouse model is known as the naturally-occurring model. This is found in BALB/c mouse colonies as a mouse that develops clinical arthritis, and it is sustained through sibship mating. Regarding the thus-mated SKG mice, when they are judged at 6-month age, almost all mice have some clinical arthritis (joint edema) in any of four limb joints. The arthritis is not by vertical/horizontal infection with microorganisms but is by autosomal recessive inheritance mutation. The clinical arthritis (joint edema) starts in around 2 months after the birth essentially at the finger joints of the forepaws, and thereafter extends to the joints of the hands and the joints of the legs. After 6 months, most of the mice develop arthrosclerosis (articular rigidity). From the pathohistological viewpoint, the disease starts from synovitis to periarthritis and further toward pannus formation and cartilage/subcartilaginous bone tissue fracture and fibrillation. […] This is an extremely interesting model for studying the mechanism of delayed inflammations. As an engineering model, there is known a transgenic (tg) mouse with a Tax gene of a human T cell leukemia virus-1 (HTLV-1) inserted therein. The tg mouse has the transgene expressing in the local joints, in which inflammatory cytokines such as IL-1α, IL-1β, IL-6, TNF-α, TGF-β, IFN-γ and IL-2, as well as MHC gene are activated. […] The tg mouse is a significant model in studies where the influence of Tax gene that will be probably because of its transactivation on the production of inflammatory cytokines or the influence of viruses on the mechanism of autoimmune reaction, and the like are specifically investigated.
The pharmaceutical potency of the above-mentioned BCAA, mixture of branched amino acids, was investigated on SKG mice, model mice with spontaneously-developed chronic rheumatism (articular rheumatism). In the same manner as in Example 2, BCAA was orally administered to 4-weeks-old (before RA development) or 12-weeks-old (after RA development), male SKG mice. The dose to each mouse was 250 mg/liter.

[3] = system: adjuvant-induced arthritis (AA) in Lewis rats; conditions: 0.03% ornithine oral
Method: AA induction in rats was attained in a well-known laboratory method (see Taurog et al., Meth. Enzymolo., 162, 339-355, 1988). Specifically, 50 μ/rat of 1% (w/v) adjuvant was administered to the bottom of the right foot of each rat. One, two and three weeks after the administration, the volume of the edema in the bottom of the right foot of each rat was measured by the use of a device for measuring rats' hind leg (foot) edema.
The dose is the same as in Example 1.
On day 7, 14 and 21 after the adjuvant administration, the rats were checked for edema.

[4] = 0.03% L-ornithine oral from 4 weeks old, mice having turned 20 weeks old

NCCC[C@H](N)C(=O)O [Ornithine, L-ornithine]
Arthritis Score ([1]; L-ornithine 0.006 wt.% aqueous solution, day 14 after boosting immunization): 1.0 | Arthritis Score ([1]; L-ornithine 0.01% alone, oral in drinking water, day 12 after the second subcutaneous administration): 0.8 | mice showing edema in leg joints ([1]; L-ornithine 0.01% single administration, day 12 after the second subcutaneous administration): three of the ten | Arthritis Score ([1]; L-ornithine 0.03 wt.% aqueous solution, day 14 after boosting immunization): 0.6 | dose dependence of effect on CIA (in words) ([1]; L-ornithine 0.15%, 0.03%, 0.006% aqueous solutions): dose-response (dependent) effect of retarding clinical arthritis | Arthritis Score ([1]; L-ornithine 0.15 wt.% aqueous solution, day 14 after boosting immunization): 0.2 | effect of feeding as solid feed on clinical arthritis (in words) ([1]; L-ornithine in solid feed): effective for retarding clinical arthritis | mice that developed clinical arthritis ([1]; L-ornithine in solid feed, within 14 days after the second subcutaneous administration): no mice | effect on CIA (in words) ([1]; ornithine 0.03% oral): significantly retards CIA | Arthritis Score ([1]; ornithine 0.03% oral, day 0 after antigenation): 0 | Arthritis Score ([1]; ornithine 0.03% oral, day 4 after antigenation): 0 | Arthritis Score ([1]; ornithine 0.03% oral, day 6 after antigenation): 0 | Arthritis Score ([1]; ornithine 0.03% oral, day 8 after antigenation): 0 | Arthritis Score ([1]; ornithine 0.03% oral, day 10 after antigenation): 0 | Arthritis Score ([1]; ornithine 0.03% oral, day 12 after antigenation): 0 | Arthritis Score ([1]; ornithine 0.03% oral, day 14 after antigenation): 0 | tested mice showing edema ([1]; ornithine 0.03% oral, up to day 13 after the second subcutaneous administration): none | arthritis (joint) score ([1]; ornithine 0.03% oral, whole observation (control followed up to day 17)): zero | effect on clinical arthritis (joint edema) in SKG mice (in words) ([2]; 0.03% L-ornithine oral): significantly retard the clinical arthritis (joint edema) | arthritis score average ([2]; 0.03% L-ornithine oral from 4 weeks old, male SKG mice having turned 11 weeks old): 0.18 | arthritis (joint) score average [2, 4]: 2.0 | score reduction as compared with the control group [2, 4]: 35% | disease development (in words) ([2]; 0.03% L-ornithine oral started at 8 weeks old, effect lower than with start at 4 weeks old): the disease development was depressed in 2 weeks | dose dependence of effect in SKG mice (in words) ([2]; L-ornithine 0.15%, 0.03%, 0.006% aqueous solutions, FIG. 3): dose-dependent (response) effect of retarding clinical arthritis | effect on clinical arthritis in AA models (in words) [3]: significantly retards clinical arthritis
